Measured values reported in the METLIN SMRT retention time set (Domingo-Almenara et al. 2019).

Test: gradient 5% acetonitrile 3 min, to 50% in 2 min, to 85% in 15 min, held 3 min, 100 µL/min
Conditions: column: Zorbax Extend-C18 2.1 x 50 mm; eluents: water / acetonitrile, 0.1% formic acid
In short: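 Pure standards were run in mixtures of ~100 molecules by HPLC coupled to a quadrupole time-of-flight mass spectrometer. The column was a Zorbax Extend-C18 (2.1 × 50 mm, 1.8 μm) at 100 μL/min, with water and acetonitrile each containing 0.1% formic acid, in positive and negative ionization mode. Dead and dwell volumes were 40 μL and 900 μL. Retention time was taken from computationally picked adduct peaks, each manually inspected, with data collected over 3 months.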

RP-LC retention time [s] | Structure (SMILES)
916 | O=C(NCC1CCCO1)c1cn(-c2ccccc2)nc1-c1ccccc1 (centres undefined)
892 | Cc1cc(N2C=C(C(=O)N3CCOCC3)S(=O)(=O)c3ccc(F)cc32)ccc1Br
951 | O=C(c1ccco1)N1CCN(S(=O)(=O)c2ccc(-c3cc(C(F)(F)F)on3)o2)CC1
760 | Cc1nc(-c2nc(-c3cccs3)cs2)cn1CC(=O)NCc1ccccc1
671 | O=C(Cc1ccsc1)N1CCn2c(nnc2-c2ccccc2)C1
828 | O=C(CN1CCN(Cc2ccccc2)C(=O)C1=O)N1CCN(c2cccc(Cl)c2)CC1
967 | Cc1ccc(N2CC(c3nc4ccccc4n3CC(=O)N(CC(C)C)CC(C)C)CC2=O)cc1 (centres undefined)
946 | O=C(NCCc1ccccc1)C(=O)NCC1OCCc2ccccc21 (centres undefined)
678 | COc1ccc(CNC(=O)COc2nc(C)nc3ccccc23)cc1
741 | COc1ccccc1-c1nnc(C2CCN(C(=O)c3ccccc3)CC2)o1
707 | COc1ccc(S(=O)(=O)N2CCCC(C(=O)N3CCN(Cc4ccccc4)CC3)C2)cc1Cl (centres undefined)
646 | COc1ccc(NC(=O)N2CCN(c3cc(C)nc(N4CCCC4)n3)CC2)c(OC)c1
636 | CCOC(=O)C1=C(CN2CCN(C)CC2)NC(=O)NC1c1ccc(OC(C)C)cc1 (centres undefined)
987 | O=C(Cn1nc2c(SC3CCCCC3)nccn2c1=O)NC1CCCCC1
938 | Cn1cc(S(=O)(=O)N2CCCCC2)cc1C(=O)N1CCc2ccccc2C1
732 | COCc1nn(CC2CC2)c2c1CN(C(=O)Cc1ccccc1)CC2

RP-LC retention time [s] | Structure (SMILES)
803 | Cc1cc(N2CCOCC2)nc(N2CCN(S(=O)(=O)c3ccc(-c4ccccc4)cc3)CC2)n1
812 | CCC(C)NC(=O)N1CC(c2nc(CCOCc3ccccc3)no2)C1 (centres undefined)
931 | O=C(NCc1ccccc1Cl)c1csc(C(=O)NC2CCCC2)n1
665 | COc1ccc(NC(=O)c2cccc(N3CCNC(c4ccccc4)C3)n2)cc1 (centres undefined)
883 | CC(C)C(=O)Nc1ccc2nc(N3CCN(c4cccc(Cl)c4)CC3)cc(C(=O)O)c2c1
638 | O=C(Cn1ccc2ccc(N3CCOCC3)nc21)NC1CCN(Cc2ccccc2)CC1
935 | COCC(=O)N1CCc2c([nH]c3ccccc23)C1c1ccccc1 (centres undefined)
708 | COc1ccc(NC(=O)COc2nc(C)nc3ccccc23)c(OC)c1
955 | Cc1nc(N2CCOCC2)c2c(C(=O)Nc3cccc(C(F)(F)F)c3)c(C)oc2n1
693 | CCCNC(=O)C1CCCN(c2ccc(SCC(=O)Nc3cccc(SC)c3)nn2)C1 (centres undefined)
1270 | Cc1ccc(C)c(S(=O)(=O)N2CCC(c3noc(-c4ccccc4C)n3)CC2)c1
779 | O=C(CCc1c(-c2ccc(F)cc2)nc2ccccn12)NCc1ccccc1Cl
752 | COc1ccc(-c2noc(C3CCCN3C(=O)c3ccc(NC(C)=O)cc3)n2)cc1 (centres undefined)
567 | O=C(Cn1cccn1)N1CCN(c2ncccn2)CC1
740 | Cc1ccc(CNC(=O)Cn2ccc3sccc3c2=O)cc1
585 | O=C(NCCCN1CCCC1)C1CCN(c2nc3cccnc3s2)CC1

Further lines, the compound ahead of its results:

Structure (SMILES) | RP-LC retention time [s]
Cc1cc(C)nc(N2CCN(c3nc(C)cc(C)c3C#N)CC2)n1 | 990
COc1cccc(CNC(=O)Cc2csc3nc(-c4ccc(OC)c(OC)c4)cn23)c1 | 698
CCCN1C(=O)COc2ccc(-c3noc(-c4ccc(C(F)(F)F)cc4)n3)cc21 | 1050
COc1cc(NC(=O)CN2C(=O)COc3ccc(C(=O)N4CCCC4)cc32)cc(OC)c1 | 718
O=C(Cc1nc(-c2ccccn2)n[nH]1)Nc1cc(F)ccc1F | 652
Cn1cc(-c2ccncc2)cc1C(=O)NCc1ccc(F)cc1 | 640
CCn1c(CCc2ccccc2NS(=O)(=O)c2ccc(F)cc2F)nc2ccccc21 | 755
CCN1C(=O)CCc2cc(NS(=O)(=O)c3cccc4cccnc34)ccc21 | 758
COc1cc(NC(=O)N2CCCC2c2ccccc2C)cc(OC)c1OC (centres undefined) | 865
C=CCn1nc2ccc(S(=O)(=O)N3CCSCC3)cn2c1=O | 744
Cc1cc(F)ccc1NC(=O)C(C)C1CCN(C(=O)Nc2ccc(Cl)cc2)CC1 (centres undefined) | 974
COc1ccc(C2=C(C)C(Nc3ccccc3OC)=NS2(=O)=O)cc1 | 925
Cc1ccc(C)c(S(=O)(=O)N2CC(N(C(=O)NC(C)C)C3CCOCC3)C2)c1 | 689
CN1C(=O)c2cccn2CC1CNC(=O)Nc1ccc2c(c1)OCCO2 (centres undefined) | 624
Cc1ccc(C)c(NC(=O)NC2CCN(c3ccc(F)c(C)c3)C2=O)c1 (centres undefined) | 891
CC(NC(=O)c1cccnc1)c1nc(-c2ccccc2)no1 (centres undefined) | 694
CCN1CCCn2cc(S(=O)(=O)NCc3cccc(F)c3)cc2C1=O | 754
Cn1nc(-c2nnc(-c3ccccc3)o2)c2c1CCN(S(=O)(=O)c1cccc(Cl)c1)C2 | 990
COc1ccc(-n2nc(C(F)(F)F)cc2-c2ccc(Cl)cc2)cc1 | 1250

Structure (SMILES) | RP-LC retention time [s]
CCc1cccc(C)c1Nc1c(-c2ccc(F)cc2)nc2ncccn12 | 886
CCCNC(=O)CC1CCN(C(=O)c2[nH]c(C)c(C)c2C)CC1 | 698
CN(C)C(=O)c1cn(C2CN(S(=O)(=O)c3cccc4nsnc34)C2)nn1 | 657
O=C(Nc1ccc2c(c1)OCCO2)c1cccc2c1CCN2C(=O)Nc1ccc(F)cc1 | 909
COCCNC(=O)c1nc(-c2ccnc(N3CCCCCC3)c2)no1 | 602
CCCSc1nc2c(c(=O)n(C)c(=O)n2C)n1C | 837
C=CCNC(=O)C1CCN(S(=O)(=O)c2cc(Cl)ccc2OCC)CC1 | 767
CCN1c2ccc(C)cc2C(=O)NC12CCN(C(=O)c1cccc(OC)c1)CC2 | 805
Fc1ccc(OCc2nc(-c3cccc(-c4csc(C5CC5)n4)c3)no2)cc1 | 1290
OCC(O)COc1cccc2ccccc12 (centres undefined) | 758
COc1ccc(OC)c(NC(=O)C2CCCN2S(=O)(=O)c2ccc3c(c2)CC(C)N3C(C)=O)c1 (centres undefined) | 863
CCCc1noc(-c2ccnc(-n3ncc(C(=O)Nc4ccc(C)c(F)c4)c3C)c2)n1 | 1170
CCCCN(C)c1ccc2nnc(CCc3nc(-c4cccc(C)c4)no3)n2n1 | 951
Cc1ccsc1C(=O)N1C[C@@H](F)C[C@H]1C(=O)N1CCCCC1 | 695
O=C(O)c1nnn(-c2cccc(Cl)c2)c1C(F)(F)F | 806
COc1ccc(C)cc1NC(=O)C1CCN(S(=O)(=O)c2ccc3c(c2)sc(=O)n3C)CC1 | 827
COc1ccc(-c2nc3ncccn3c2Nc2ccccc2C)cc1 | 705
O=C(Nc1ccc2cn[nH]c2c1)c1ccc(=O)[nH]n1 | 567
O=C(NCC1CCOCC1)Nc1c(F)cccc1F | 628

Structure (SMILES) | RP-LC retention time [s]
CC(=O)N1CC[C@]2(CO)CN(C(=O)c3ccoc3C)C[C@@H]2C1 | 583
Cc1cccc(S(=O)(=O)N(C)CC2CCOCC2)c1 | 863
Cc1cc(C(=O)Nc2nc3c(s2)CN(C(=O)c2cnn(-c4ccccc4)c2C)CC3)no1 | 712
COc1ccc(-c2cc3c(=O)n(Cc4nc(-c5ccccc5Br)no4)ncn3n2)cc1 | 1090
Cc1ccc([N+](=O)[O-])cc1NC(=O)c1cccc([N+](=O)[O-])c1O | 913
COc1ccc(-c2noc(NCCc3ccc(OC)c(OC)c3)n2)cc1 | 891
COc1cc([C@@H]2c3cc4c(cc3[C@H](O)[C@@H](CO)[C@@H]2C(=O)NCCC2=CCCCC2)OCO4)cc(OC)c1OC | 781
Cc1noc(CNC(=O)c2ccc(OCc3nc(-c4ccco4)cs3)cc2)n1 | 758
COc1ccc(NS(=O)(=O)c2cc(-c3cc(C(F)(F)F)on3)sc2C)cc1OC | 1020
Cc1noc(C)c1S(=O)(=O)N1CCC(c2noc(-c3ccccc3)n2)C1 (centres undefined) | 1010
COc1cc(OC)cc(N2C(=O)c3cc(C)nn3CC2(C)C(=O)NCc2ccc(F)cc2)c1 (centres undefined) | 829
CCn1cc(C)c(C(=O)O)c1CC(=O)Nc1ccc2c(c1)OCCO2 | 762
COc1ccccc1NC(=O)C(C)n1nc(C)c2nn(-c3ccccc3)c(-n3cccc3)c2c1=O (centres undefined) | 1130
O=c1[nH]cc(S(=O)(=O)N2CCCC2)c(=O)[nH]1 | 568
COc1ccccc1-c1nc(Cc2noc(-c3ccc(F)cc3)n2)c(C)o1 | 1040
c1ccc(-c2nnc(-c3ccccc3OCc3cn4ccccc4n3)o2)cc1 | 702
O=C1CC(c2ccc(C(=O)O)cc2)c2scc(-c3cccc(F)c3)c2N1 (centres undefined) | 823
CN(CC(=O)N1CCN(C2CCCC2)CC1)S(=O)(=O)c1ccc2c(c1)CCCC(=O)N2 | 588
Cc1cccn2cc(C(=O)NCCC(C)C)nc12 | 712
